Series [1] concerns the target T1, Solute carrier family 22 member 6 (Rattus norvegicus, UniProt O35956).
T1 sequence (O35956 whole entry): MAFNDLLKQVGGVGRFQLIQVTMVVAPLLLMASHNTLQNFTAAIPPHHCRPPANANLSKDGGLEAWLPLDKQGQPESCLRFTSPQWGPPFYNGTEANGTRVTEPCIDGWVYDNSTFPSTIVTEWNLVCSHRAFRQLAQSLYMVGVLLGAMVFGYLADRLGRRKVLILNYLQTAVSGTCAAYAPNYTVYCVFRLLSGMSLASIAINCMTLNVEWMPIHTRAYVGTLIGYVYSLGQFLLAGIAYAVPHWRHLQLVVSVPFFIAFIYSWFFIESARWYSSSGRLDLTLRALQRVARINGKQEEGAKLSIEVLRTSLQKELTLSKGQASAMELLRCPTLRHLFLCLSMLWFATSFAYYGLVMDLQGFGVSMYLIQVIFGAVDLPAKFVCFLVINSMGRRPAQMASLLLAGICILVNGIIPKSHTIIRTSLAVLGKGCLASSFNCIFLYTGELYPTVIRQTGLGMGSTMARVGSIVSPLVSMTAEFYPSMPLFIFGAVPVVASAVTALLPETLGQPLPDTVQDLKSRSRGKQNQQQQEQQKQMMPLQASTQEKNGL
Nature of the series: TP_TRANSPORTER: uptake in Xenopus laevis oocytes. In kind it is functional, cell-based. To be noted: oocyte.

Series [2] deals with T1, Solute carrier family 22 member 6. Nature of the series: TP_TRANSPORTER: inhibition of PAH uptake in Xenopus laevis oocytes. In kind it is functional, cell-based, Oocyte. Conditions: for Activity: xenopus laevis, oocyte.
Substrate in series [3]: Nc1ccc(C(=O)NCC(=O)O)cc1
Nature of the series: cells, lysate or membranes named.

With `CC(=O)Nc1nnc(S(N)(=O)=O)s1` [ACETAZOLAMIDE], the Activity result in series [1] is “substrate [+]”. In addition, the Ki (commonly a measure of affinity in units of concentration, obtained from inhibition or displacement) in series [2] came out at 1100 µM.

On to `CCOc1ccc2nc(S(N)(=O)=O)sc2c1` [ETHOXZOLAMIDE], for which, in series [2], the Activity entry was “inhibitor [+]”.

Take `CC(=O)/N=c1/sc(S(N)(=O)=O)nn1C` [METHAZOLAMIDE]: the Activity entry in series [2] was “inhibitor [+]”.

Regarding `NS(=O)(=O)c1cc2c(cc1Cl)NC(C1CC3C=CC1C3)NS2(=O)=O` (stereo unspecified) [CYCLOTHIAZIDE], in series [2], the Activity result was “inhibitor [+]”.

With `NS(=O)(=O)c1cc2c(cc1Cl)N=CNS2(=O)=O` [CHLOROTHIAZIDE], in series [2], the Activity result is “inhibitor [+]”.

Molecule `NS(=O)(=O)c1cc2c(cc1Cl)NCNS2(=O)=O` [HYDROCHLOROTHIAZIDE] registered a Ki in series [2] of 150 µM.

On to `CCCCNc1cc(C(=O)O)cc(S(N)(=O)=O)c1Oc1ccccc1` [BUMETANIDE], for which, in series [2], the affinity corresponds to a Ki of 5.5 µM.

As to `NS(=O)(=O)c1cc(C(=O)O)c(NCc2ccco2)cc1Cl` [FUROSEMIDE], in series [1], the Activity entry was “substrate [+]”. For the same molecule, in series [2], the Ki worked out at 9.5 µM.

B1: Solute carrier family 22 member 6 (Rattus norvegicus) (protein)
chain: MAFNDLLKQVGGVGRFQLIQVTMVVAPLLLMASHNTLQNFTAAIPPHHCRPPANANLSKDGGLEAWLPLDKQGQPESCLRFTSPQWGPPFYNGTEANGTRVTEPCIDGWVYDNSTFPSTIVTEWNLVCSHRAFRQLAQSLYMVGVLLGAMVFGYLADRLGRRKVLILNYLQTAVSGTCAAYAPNYTVYCVFRLLSGMSLASIAINCMTLNVEWMPIHTRAYVGTLIGYVYSLGQFLLAGIAYAVPHWRHLQLVVSVPFFIAFIYSWFFIESARWYSSSGRLDLTLRALQRVARINGKQEEGAKLSIEVLRTSLQKELTLSKGQASAMELLRCPTLRHLFLCLSMLWFATSFAYYGLVMDLQGFGVSMYLIQVIFGAVDLPAKFVCFLVINSMGRRPAQMASLLLAGICILVNGIIPKSHTIIRTSLAVLGKGCLASSFNCIFLYTGELYPTVIRQTGLGMGSTMARVGSIVSPLVSMTAEFYPSMPLFIFGAVPVVASAVTALLPETLGQPLPDTVQDLKSRSRGKQNQQQQEQQKQMMPLQASTQEKNGL
B1: the Km – broadly, the substrate concentration at which the rate is half of its maximum – in series [3] came out at 31 µM.

(Values after ChEMBL document CHEMBL2074230, “Interaction and transport of thiazide diuretics, loop diuretics, and acetazolamide via rat renal organic anion transporter rOAT1” (J Pharmacol Exp Ther, 2000).)
